Experiments:
[1] = target: recombinant human MMP-13 (Homo sapiens, UniProt P45452); assay: In vitro metalloprotease inhibition, fluorogenic MCA peptide substrate; type: biochemical; details: Inhibition Table; room temperature, pH 7.5, 4 μM substrate
Experimental: The compounds prepared in the manner described in the Examples above were assayed for activity by an in vitro assay. Following the procedures of Knight et al., FEDS Lett. 296(3):263 (1992).
More specifically, recombinant human MMP-13 and MMP-1 enzymes were prepared in laboratories of the assignee following usual laboratory procedures. MMP-13 from a full length cDNA clone was expressed as a proenzyme using a baculovirus as discussed in V.A. Luckow, insect Cell Expression Technology, pages 183-218, in Protein Engineering: Principles and Practice, J. L. Cleland et al eds., Wiley-Liss, Inc., (1996). […]
In the absence of inhibitor activity, a fluorogenic peptide was cleaved at the gly-leu peptide bond, separating the highly fluorogenic peptide from a 2,4-dinitrophenyl quencher, resulting in an increase of fluorescence intensity (excitation at 328 nm/emission at 415 nm). Inhibition was measured as a reduction in fluorescent intensity as a function of inhibitor concentration, using a Perkin Elmer L550 plate reader. The IC50 values were calculated from those values. […]

[2] = target: T1, recombinant human MMP-1 (Homo sapiens, UniProt P03956); assay: as above; details: Inhibition Table; room temperature, pH 7.5, 4 μM substrate
T1 sequence (P03956 100-469): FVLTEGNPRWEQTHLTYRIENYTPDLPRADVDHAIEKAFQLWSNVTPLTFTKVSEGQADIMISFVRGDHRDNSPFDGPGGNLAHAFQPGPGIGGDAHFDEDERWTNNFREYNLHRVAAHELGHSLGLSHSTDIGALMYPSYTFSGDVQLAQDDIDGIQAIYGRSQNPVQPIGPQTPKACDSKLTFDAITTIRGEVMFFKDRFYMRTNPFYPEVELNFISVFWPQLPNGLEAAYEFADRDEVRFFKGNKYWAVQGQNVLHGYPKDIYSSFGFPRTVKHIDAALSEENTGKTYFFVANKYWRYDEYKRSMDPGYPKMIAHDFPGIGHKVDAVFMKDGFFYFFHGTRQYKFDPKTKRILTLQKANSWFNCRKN

[3] = target: T2, MMP-2 (Homo sapiens, UniProt P08253); assay: as above; details: Inhibition Table; room temperature, pH 7.5, 4 μM substrate
T2 sequence (P08253 110-660): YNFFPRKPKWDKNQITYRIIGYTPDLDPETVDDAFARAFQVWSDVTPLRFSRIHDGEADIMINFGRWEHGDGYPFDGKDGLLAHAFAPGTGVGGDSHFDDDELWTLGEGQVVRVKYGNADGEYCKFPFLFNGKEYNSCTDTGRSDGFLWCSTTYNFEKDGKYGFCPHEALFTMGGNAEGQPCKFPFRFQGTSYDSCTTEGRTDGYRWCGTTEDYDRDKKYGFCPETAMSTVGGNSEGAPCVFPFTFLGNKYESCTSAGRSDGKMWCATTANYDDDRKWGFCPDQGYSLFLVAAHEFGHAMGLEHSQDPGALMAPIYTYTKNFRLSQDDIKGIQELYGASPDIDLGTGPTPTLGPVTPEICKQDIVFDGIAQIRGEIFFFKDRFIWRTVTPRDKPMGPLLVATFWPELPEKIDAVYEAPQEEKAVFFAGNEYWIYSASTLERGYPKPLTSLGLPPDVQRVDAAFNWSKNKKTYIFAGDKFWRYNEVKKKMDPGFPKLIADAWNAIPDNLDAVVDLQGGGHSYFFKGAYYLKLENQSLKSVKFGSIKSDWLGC

[4] = tested on: advanced, rapidly progressive, treatment-refractory solid tumor cancers (colorectal, pancreatic, ovarian, prostate); details: cited from earlier work

ED50 MMP-13 [1]	ED50 MMP-1 [2]	ED50 MMP-2 [3]	Molecule	most common drug-related toxicity ([4]; Phase I/II clinical trials)	cancer-specific antigens used as surrogate markers for biological activity ([4]; Phase I/II studies, patients with advanced solid tumor cancers)
<10,000 nM	<10,000 nM	<10,000 nM	4-[[4-[[(3R,5R)-rel-3,5-Dimethyl-1-piperidinyl]carbonyl]-1-piperidinyl]sulfonyl]tetrahydro-N-hydroxy-2H-pyran-4-carboxamide and 4-[[4-[[(3R,5S)-rel-3,5-dimethyl-1-piperidinyl]carbonyl]-1-piperidinyl]sulfonyl]tetrahydro-N-hydroxy-2H-pyran-4-carboxamide [Example 49]	–	–
–	–	–	CNC(=O)[C@@H](NC(=O)[C@H](CC(C)C)[C@H](O)C(=O)NO)C(C)(C)C [marimastat, Marimastat]	musculoskeletal pain and stiffness	dose-related reduction in the rise of cancer-specific antigens
